Results: patent US20170234881A1, “METHODS OF DIAGNOSING AND TREATING CANCER” (INSERM ( INSTITUT NATIONAL DE LA SANTÉ ET DE LA RECHERCHE …, priority 2014, published 2017)

Columns and labels:
Format in all cases: cell-based, human
shHSD2 MCF7 cells [1] = assay: Invasiveness of shHSD2 MCF7 cells (matrigel-coated filters); details: OCDO 5 μM for 72 h
Protocol: (§1) FIG. 7. Knock-down of 11βHSD2 decreases cell proliferation, invasion and survival in MCF7 cells as well as tumor growth and OCDO reverses these effects. shC or shHSD2 MCF7 cells were analyzed as followed: (A) The proliferation of sh-C or shHSD2 cells treated or not with OCDO 5 μM 24 h was measured using quantification of DNA BrDU incorporation as described in FIG. 2A. (B) The proliferation of sh-C or shHSD2 cells treated or not with increasing concentration of cortisone for 24 h was measured as in (A). (C) The invasiveness of sh-C or shHSD2 cells treated or not with OCDO 5 μM for 72 h was assayed using matrigel-coated filters. (D) the formation of colony by sh-C or shHSD2 cells treated or not with OCDO 1 μM was quantified as described in FIG. 6F. […] Animals were monitored for tumor growth twice a week. […] (F) Mean (±s.e.m) of Ki67 positive cell number determined from IHC staining of shC or shHSD2 MCF7 tumor sections from (E), n=8, *P<0.05 (Student's t-test) using HistoQuant, Pannoramic Viewer (3DHistech).
(§2) Invasion assays were carried out using Bio-Coat migration chambers (BD Falcon) with 8 μm filters previously coated with matrigel. […] The entire membranes were mounted on glass slides, and were counted under a microscope. […]

MCF7 cells = assay: Cell invasion assay (matrigel-coated filters), MCF7; details: concentration-dependent, level reached
Protocol: FIG. 2. OCDO is a tumor promoter in vitro and in vivo and its inhibition contributes to the anti-tumor effects of Tam and DDA. (A, B) Histograms representing the effect of OCDO or 17β-estrogen (E2) on MCF7 (A) and TS/A (B) cell proliferation after 24 h treatment using a colorimetric immunoassay measuring BrDU incorporation in DNA (C, D) Histogram representing the effect of OCDO on MCF7 (C) and TS/A (D) cell invasion. Data are the mean of three separate experiments (±s.e.m), *P<0.05, **P<0.01, ***P<0.001 (Student's t-test). (E, F) Mice were implanted s.c. with MCF7 (E) or TS/A (F) cells and animals (8 per group) were treated s.c. every day starting on the day of implantation with either the solvent vehicle or OCDO (16 μg/kg for MCF7 or 50 μg/kg for TS/A). Animals were monitored for tumour growth twice a week. The data are representative of three independent experiments. The mean tumor volume±s.e.m is shown, *P<0.05, **P<0.01, ***P<0.001 (analysis of variance (ANOVA), Dunnett's post test). (G) Mean (±s.e.m) of Ki67 positive cell number determined from IHC staining of MCF7 tumor sections from (E), n=8, *P<0.05 (Student's t-test) using HistoQuant, Pannoramic Viewer (3DHistech). […]
as §2

shHSD2 MCF7 cells [2] = assay: Proliferation of shHSD2 MCF7 cells (BrDU); details: sh11HSD2 MCF7 cells, 24 h; OCDO 5 μM; cortisone increasing concentrations
Protocol: as §1
MCF7 or HEK293T cells (5×10^6 cells) were transfected with 5 μg of the indicated plasmid using the NEON Transfection System and according to the manufacturer's recommendations. […] Several clones were analyzed by immunoblot analysis and real time RT-qPCR for the knock down of the expression of the protein of interest. […]

## CC(C)CCC[C@@H](C)[C@H]1CC[C@H]2[C@@H]3CC(=O)[C@@]4(O)C[C@@H](O)CC[C@]4(C)[C@H]3CC[C@]12C [OCDO, 6-oxo-cholestan-3β,5α-diol]
shHSD2 MCF7 cells [1]
  effect on the inhibition of cell invasion mediated by 11βHSD2 knock-down: reversed the inhibition of cell invasion
MCF7 cells
  invasiveness compared with the control: 6 fold
shHSD2 MCF7 cells [2]
  effect on the inhibition of cell proliferation induced by 11βHSD2 knock-down: able to reverse the inhibition of cell proliferation
